Eleven compounds from patent publication US20170334899A1, “AMINO-SUBSTITUTED ISOTHIAZOLES” (Bayer Pharma Aktiengesellschaft, priority 2014, published 2017) can be followed below.

Counter-ions that a name gives are not always drawn. Bounds are passed on as bounds.

The target of this assay is T1, human kinase Mps-1 (Homo sapiens, UniProt P33981).
T1 construct: N-terminally GST-tagged human full length recombinant Mps-1 kinase; GST (N); purchased Invitrogen, Karslruhe, Germany PV4071
T1 sequence (P33981 1-857): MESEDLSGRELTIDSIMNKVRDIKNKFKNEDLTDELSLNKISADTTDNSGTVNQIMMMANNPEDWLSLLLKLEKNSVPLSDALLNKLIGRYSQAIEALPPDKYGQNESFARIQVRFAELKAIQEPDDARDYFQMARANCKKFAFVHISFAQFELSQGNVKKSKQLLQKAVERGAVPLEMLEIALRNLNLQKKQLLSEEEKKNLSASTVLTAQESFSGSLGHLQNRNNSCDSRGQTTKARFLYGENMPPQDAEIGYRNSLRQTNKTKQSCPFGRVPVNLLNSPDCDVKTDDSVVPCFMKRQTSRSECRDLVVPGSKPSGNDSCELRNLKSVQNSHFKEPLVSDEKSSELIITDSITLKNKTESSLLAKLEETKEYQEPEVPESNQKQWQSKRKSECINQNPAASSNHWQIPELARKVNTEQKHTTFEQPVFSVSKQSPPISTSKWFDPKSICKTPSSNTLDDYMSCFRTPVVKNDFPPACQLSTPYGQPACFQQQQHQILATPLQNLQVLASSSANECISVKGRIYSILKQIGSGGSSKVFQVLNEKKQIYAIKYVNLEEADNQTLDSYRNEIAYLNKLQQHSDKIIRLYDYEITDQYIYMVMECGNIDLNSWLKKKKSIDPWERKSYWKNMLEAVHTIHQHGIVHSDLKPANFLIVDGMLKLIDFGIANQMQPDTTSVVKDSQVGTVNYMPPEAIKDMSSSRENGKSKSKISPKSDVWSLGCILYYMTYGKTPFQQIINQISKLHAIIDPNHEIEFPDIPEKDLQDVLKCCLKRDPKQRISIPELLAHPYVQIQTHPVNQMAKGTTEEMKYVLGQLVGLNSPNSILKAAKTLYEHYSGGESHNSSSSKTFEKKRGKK
The assay can be described thus: Mps-1 kinase assay (TR-FRET). It is filed as biochemical. Particulars: Mps-1 TR-FRET kinase assay; avg; read-out: Mps1 avg (IC50 [mol/l]). The method, then:
The human kinase Mps-1 phosphorylates a biotinylated substrate peptide. Detection of the phosphorylated product is achieved by time-resolved fluorescence resonance energy transfer (TR-FRET) from Europium-labelled anti-phospho-Serine/Threonine antibody as donor to streptavidin labelled with cross-linked allophycocyanin (SA-XLent) as acceptor. Compounds are tested for their inhibition of the kinase activity.
N-terminally GST-tagged human full length recombinant Mps-1 kinase (purchased from Invitrogen, Karslruhe, Germany, cat. no PV4071) was used. As substrate for the kinase reaction a biotinylated peptide of the amino-acid sequence biotin-Ahx-PWDPDDADITEILG (C-terminus in amide form, purchased from Biosyntan GmbH, Berlin) was used.
For the assay 50 nl of a 100-fold concentrated solution of the test compound in DMSO was pipetted into a black low volume 384we11 microtiter plate (Greiner Bio-One, Frickenhausen, Germany), 2 μl of a solution of Mps-1 in assay buffer [0.1 mM sodium-ortho-vanadate, 10 mM MgCl2,2 mM DTT, 25 mM Hepes pH 7.7, 0.05% BSA (w/v), 0.001% Pluronic F-127] were added and the mixture was incubated for 15 min at 22° C. to allow pre-binding of the test compounds to Mps-1 before the start of the kinase reaction. Then the kinase reaction was started by the addition of 3 μl of a solution of 16.7 μM adenosine-tri-phosphate (ATP, 16.7 μM=>final conc. in the 5 μl assay volume is 10 μM) and peptide substrate (1.67 μM=>final conc. in the 5 μl assay volume is 1 μM) in assay buffer and the resulting mixture was incubated for a reaction time of 60 min at 22° C. The concentration of Mps-1 in the assay was adjusted to the activity of the enzyme lot and was chosen appropriate to have the assay in the linear range, typical enzyme concentrations were in the range of about 0.5 nM (final conc. in the 5 μl assay volume). The reaction was stopped by the addition of 5 μl of a solution of TR-FRET detection reagents (100 mM Hepes pH 7.4, 0.1% BSA, 40 mM EDTA, 140 nM Streptavidin-XLent [#61GSTXLB, Fa. Cis Biointernational, Marcoule, France], 1.5 nM anti-phospho(Ser/Thr)-Europium-antibody [#AD0180, PerkinElmer LAS, Rodgau-Jugesheinn, Germany]. Instead of the 1.5 nM anti-phospho(Ser/Thr)-Europium-antibody a mixture of 2 nM unlabeled anti-phospho ser/thr-pro antibody MPM-2 [Millipore cat. #05-368] and 1 nM LANCE EU-W1024 labeled anti-mouse IgG antibody [Perkin-Elmer, product no. AD0077] can be used).
The resulting mixture was incubated 1 h at 22° C. to allow the binding of the phosphorylated peptide to the anti-phospho(Ser/Thr)-Europium-antibody. Subsequently the amount of phosphorylated substrate was evaluated by measurement of the resonance energy transfer from the Europium-labelled anti-phospho(Ser/Thr) antibody to the Streptavidin-XLent. Therefore, the fluorescence emissions at 620 nm and 665 nm after excitation at 350 nm was measured in a Viewlux TR-FRET reader (PerkinElmer LAS, Rodgau-Jugesheinn, Germany). The “blank-corrected normalized ratio” (a Viewlux specific readout, similar to the traditional ratio of the emissions at 665 nm and at 622 nm, in which blank and Eu-donor crosstalk are subtracted from the 665 nm signal before the ratio is calculated) was taken as the measure for the amount of phosphorylated substrate. The data were normalised (enzyme reaction without inhibitor=0% inhibition, all other assay components but no enzyme=100% inhibition).
Consider `Cc1nsc(Nc2cncc(C(F)(F)F)n2)c1C(=O)Nc1ccc(OCC2CCCN(C(=O)OC(C)(C)C)C2)nc1` (centres unmarked) [Example 166, tert-butyl 3-{[(5-{[(3-methyl-5-{[6-(trifluoromethyl)pyrazin-2-yl]amino}-1,2-thiazol-4-yl)carbonyl]amino}pyridin-2-yl)oxy]methyl}piperidine-1-carboxylate], for which the IC50 is more than 20 µM.

For `Cc1nsc(Nc2cc(C#N)ccn2)c1C(=O)Nc1ccc(Oc2cccnc2)nc1` [Example 119, 5-[(4-Cyanopyridin-2-yl)amino]-3-methyl-N-[6-(pyridin-3-yloxy)pyridin-3-yl]-1,2-thiazole-4-carboxamide], the IC50 was not below 20 µM.

In the case of `Cc1nsc(Nc2cnc(C(F)(F)F)cn2)c1C(=O)Nc1ccc(OC2CCN(CCC(F)(F)F)CC2)nc1` [Example 10, 3-Methyl-5-{[5-(trifluoromethyl)pyrazin-2-yl]amino}-N-(6-{[1-(3,3,3-trifluoropropyl)-piperidin-4-yl]oxy}pyridin-3-yl)-1,2-thiazole-4-carboxamide], the IC50 was not below 20 µM.

In the case of `Cc1nsc(Nc2cnc3cc(F)ccc3n2)c1C(=O)Nc1ccc(S(N)(=O)=O)cc1` [Example 149, 5-[(6-fluoroquinoxalin-2-yl)amino]-3-methyl-N-(4-sulfamoylphenyl)-1,2-thiazole-4-carboxamide], the IC50 is more than 20 µM.

With `Cc1nsc(Nc2cnc(C(F)(F)F)cn2)c1C(=O)Nc1ccc(OC2CCN(CC(F)(F)F)CC2)nc1` [Example 9, -Methyl-N-(6-{[1-(2,2,2-trifluoroethyl)piperidin-4-yl]oxy}pyridin-3-yl)-5-{[5-(trifluoromethyl)pyrazin-2-yl]amino}-1,2-thiazole-4-carboxamide], the IC50 was not below 20 µM.

With `Cc1nsc(Nc2cnc3ccccc3n2)c1C(=O)Nc1ccc(Oc2cccc(C(F)(F)F)c2)nc1` [Example 117, 3-Methyl-5-(quinoxalin-2-ylamino)-N-{6-[3-(trifluoromethyl)phenoxy]pyridin-3-yl}-1,2-thiazole-4-carboxamide], the IC50 was not below 20 µM.

In the case of `CC(=O)N(C)CCOc1ccc(NC(=O)c2c(C)nsc2Nc2nc3c(C(F)(F)F)cccc3s2)cn1` [Example 112, N-(6-{2-[Acetyl(methyl)amino]-ethoxy}pyridin-3-yl)-3-methyl-5-{[4-(trifluoromethyl)-1,3-benzothiazol-2-yl]amino}-1,2-thiazole-4-carboxamide], the IC50 was not below 20 µM.

As to `CC(=O)N1CCC(Oc2ccc(NC(=O)c3c(C)nsc3Nc3cnc(C(F)(F)F)cn3)cn2)CC1` [Example 11, N-{6-[(1-Acetylpiperidin-4-yl)oxy]pyridin-3-yl}-3-methyl-5-{[5-(trifluoromethyl)-pyrazin-2-yl]amino}-1,2-thiazole-4-carboxamide], the IC50 was not below 20 µM.

In the case of `Cc1nsc(Nc2cnc(C(F)(F)F)cn2)c1C(=O)Nc1ccc(F)c(OCC2CCCN(CC(F)F)C2)c1` (centres unmarked) [Example 335, N-(3-{[1-(2,2-difluoroethyl)piperidin-3-yl]methoxy}-4-fluorophenyl)-3-methyl-5-{[5-(trifluoromethyl)pyrazin-2-yl]amino}-1,2-thiazole-4-carboxamide], the IC50 is not below 20 µM.

As to `CCNS(=O)(=O)c1ccc(NC(=O)c2c(C)nsc2Nc2cnc3ccccc3n2)cc1` [Example 116, N-[4-(Ethylsulfamoyl)phenyl]-3-methyl-5-(quinoxalin-2-ylamino)-1,2-thiazole-4-carboxamide], the IC50 was not below 20 µM.

For `Cc1nsc(Nc2cnc(C(F)(F)F)cn2)c1C(=O)Nc1ccc(OC2CCN(CCC(F)(F)F)CC2)nc1` [Example 426, 3-Methyl-5-{[5-(trifluoromethyl)pyrazin-2-yl]amino}-N-(6-{[1-(3,3,3-trifluoro-propyl)piperidin-4-yl]oxy}pyridin-3-yl)-1,2-thiazole-4-carboxamide, Salt with Hydrochloric Acid], the IC50 is not below 20 µM.
